What was measured:
[1] = tested on: hIL-17 mRNA; test: Inhibition of hIL-17 mRNA transcription in OKT3-stimulated PBMC; assay type: cell-based; design: key: Active: Compounds with an IC50 value less than 30 μM were deemed to be active.; Not Active: Compounds with an IC50 value less than 30 μM were deemed to be active; settings: human peripheral blood mononuclear cells, OKT3 antibody, 6 h
Method: In this example, hIL-17 mRNA in human peripheral blood mononuclear cells was quantitated to measure the transcriptional inhibition of hIL-17 when treated with a compound of the invention.
Human peripheral blood mononuclear cells were plated (2.0×10^5 cells per well) in a 96-well plate in 45 μL OpTimizer T Cell expansion media containing 20 ng/ml IL-2 and penicillin/streptomycin. The cells were treated with the test compound (45 μL at 2x concentration), and then the cells were incubated at 37° C. for 1 h before addition of 10x stock OKT3 antibody at 10 ug/ml in media. Cells were incubated at 37° C. for 6 h before the cells were harvested. At time of harvest, cells were centrifuged (800 rpm, 5 min). Spent media was removed and cell lysis solution (70 μL) was added the cells in each well and incubated for 5-10 min at room temperature, to allow for complete cell lysis and detachment. mRNA was then prepared using the “mRNA Catcher PLUS plate” (Invitrogen), according to the protocol supplied. […]
The eluted mRNA isolated was then used in a one-step quantitative RT-PCR reaction, using components of the Ultra Sense Kit together with Applied Biosystems primer-probe mixes. Real-time PCR data was analyzed, normalizing the Ct values for hIL-17 to an internal control, prior to determining the fold induction of each unknown sample, relative to the control.

[2] = tested on: c-myc in MV4-11 cells; test: Inhibition of c-myc expression in cancer cell lines (mRNA, real-time PCR); assay type: cell-based, Human; design: key: Active: Compounds with an IC50 value less than 30 μM were deemed to be active.; Not Active: Compounds with an IC50 value less than 30 μM were deemed to be active; settings: 3 h
Method in brief: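 MV4-11 cells (2.5×10^4) treated with compound or 0.1% DMSO for 3 h at 37 °C. c-myc mRNA measured by RT real-time PCR duplexed with cyclophilin. IC50 from dose–response curve.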

[3] = tested on: hIL-6 mRNA; test: Inhibition of hIL-6 mRNA transcription in LPS-stimulated U937 macrophages; assay type: cell-based, human; design: key: Active: Compounds with an IC50 value less than 30 μM were deemed to be active.; Not Active: Compounds with an IC50 value less than 30 μM were deemed to be active; settings: U937 cells differentiated with PMA, LPS stimulation, 3 h
Method: In this example, hIL-6 mRNA in tissue culture cells was quantitated to measure the transcriptional inhibition of hIL-6 when treated with a compound of the present disclosure.
A human leukemic monocyte lymphoma cell line (U937) was plated (3.2×10^4 cells per well) in a 96-well plate in 100 μL RPMI-1640 containing 10% FBS and penicillin/streptomycin, and differentiated into macrophages for 3 days in 60 ng/mL PMA ([…]) at 37° C. in 5% CO2 prior to the addition of the compound of interest. The cells were pretreated for 1 h with the test compound prior to stimulation with 1 ug/mL lipopolysaccharide from Escherichia coli. The cells were incubated at 37° C. for 3 h before the cells were harvested. At time of harvest, the spent media was removed from the cells and the cells were rinsed in 200 μL PBS. Cell lysis solution (70 μL) was added the cells in each well and incubated for 5-10 min at room temperature, to allow for complete cell lysis and detachment. mRNA was then prepared using the “mRNA Catcher PLUS plate” (Invitrogen), according to the protocol supplied. After the last wash, as much wash buffer as possible was aspirated without allowing the wells to dry. Elution buffer (E3, 70 μL) was then added to each well. mRNA was then eluted by incubating the mRNA Catcher PLUS plate with Elution Buffer for 5 min at 68° C. and then immediately placing the plate on ice.
The eluted mRNA isolated was then used in a one-step quantitative real-time PCR reaction, using components of the Ultra Sense Kit together with Applied Biosystems primer-probe mixes. Real-time PCR data was analyzed, normalizing the Ct values for hIL-6 to an internal control, prior to determining the fold induction of each unknown sample, relative to the control.

[4] = tested on: human AML MV-4-11 cells; test: Inhibition of cell proliferation in cancer cell lines (CellTiter Aqueous One); assay type: cell-based; design: key: Active: Compounds with an IC50 value less than 30 μM were deemed to be active.; Not Active: Compounds with an IC50 value less than 30 μM were deemed to be active; settings: 72 h
Method in brief: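 Exponentially growing MV-4-11 cells (5×10^4/well) were treated immediately with two-fold dilutions of compound from 30 μM to 0.2 μM, in triplicate, for 72 h at 37° C, 5% CO2. Viability was measured by MTS absorbance at 490 nm after 3–4 h. Proliferation relative to DMSO after blank correction gave IC50.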

[5] = target: T1, Brd4 bromodomain 1 (BRD4(1)) (Homo sapiens, UniProt O60885); test: Inhibition of tetra-acetylated histone H4 binding to BET bromodomains (TR-FRET); design: key: Active: Compounds with an IC50 value less than 30 μM were deemed to be active.; Not Active: Compounds with an IC50 value less than 30 μM were deemed to be active; settings: first bromodomain of Brd4, tetra-acetylated histone H4 peptide
T1 construct: made in house; host or cells: E. coli BL21(DE3)
Method in brief: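 N-terminally His-tagged bromodomain (200 nM) from E. coli was mixed with biotinylated tetra-acetylated histone H4 peptide (25-50 nM), Eu-streptavidin and XL665 anti-His, plus compound, in HEPES pH 7.4 buffer with 0.2% DMSO. After 2 h at room temperature, the 665/620 nm TR-FRET decrease gave IC50 from dose-response curves.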

[6] = tested on: hApoA-1 mRNA; test: Up-regulation of hApoA-1 mRNA transcription in Huh7 cells; assay type: cell-based, human; design: key: Active: Compounds with an EC170 value less than 30 μM were deemed to be active; settings: 48 h treatment
Method: In this example, ApoA-I mRNA in tissue culture cells was quantitated to measure the transcriptional up-regulation of ApoA-I when treated with a compound of the present disclosure.
Huh7 cells (2.5×10^5 per well) were plated in a 96-well plate using 100 μL DMEM per well, (Gibco DMEM supplemented with penicillin/streptomycin and 10% FBS), 24 h before the addition of the compound of interest. After 48 h treatment, the spent media was removed from the Huh-7 cells and placed on ice (for immediate use) or at −80° C. (for future use) with the “LDH cytotoxicity assay Kit II” from Abcam. The cells remaining in the plate were rinsed with 100 μL PBS.
Then 85 μL of cell lysis solution was added to each well and incubated for 5-10 min at room temperature, to allow for complete cell lysis and detachment. mRNA was then prepared using the “mRNA Catcher PLUS plate” from Life Technologies, according to the protocol supplied. After the last wash, as much wash buffer as possible was aspirated without allowing the wells to dry. Elution Buffer (E3, 80 μL) was then added to each well. mRNA was then eluted by incubating the mRNA Catcher PLUS plate with Elution Buffer for 5 min at 68° C., and then 1 min at 4° C. Catcher plates with mRNA eluted were kept on ice for use or stored at −80° C.
The eluted mRNA isolated was then used in a one-step real-time PCR reaction, using components of the Ultra Sense Kit together with Life Technologies primer-probe mixes. Real-time PCR data was analyzed, using the Ct values, to determine the fold induction of each unknown sample, relative to the control (that is, relative to the control for each independent DMSO concentration).
Compounds with an EC170 value less than 30 μM were deemed to be active.

SMILES | IL-17 activity (IC50 < 30 μM) [1] | c-myc activity (IC50 < 30 μM) [2] | IL-6 activity (IC50 < 30 μM) [3] | Cell Proliferation activity (IC50 < 30 μM) [4] | FRET activity BRD4(1) [5] | melting point | ApoA-1 activity (EC170 < 30 μM) [6]
COc1ccc(-c2nc3cc(OC)cc(OC)c3c(=O)[nH]2)c(NC2CCN(C(=O)C(C)C)CC2)c1 [Example 19, 2-(2-((1-Isobutyrylpiperidin-4-yl)amino)-4-methoxyphenyl)-5,7-dimethoxyquinazolin-4(3H)-one] | Active | Active | Active | Active | Active |  | 
COc1ccc(-c2nc3cc(OC)cc(OC)c3c(=O)[nH]2)c(NC2CCN(C)CC2)c1 [Example 1, 5,7-Dimethoxy-2-(4-methoxy-2-((1-methylpiperidin-4-yl)amino)phenyl)-quinazolin-4(3H)-one] |  | Active | Active | Active | Active | 252 to 253 °C | Active
COc1ccc(-c2nc3cc(OC)cc(OC)c3c(=O)[nH]2)c(NCCCNC(C)C)c1 [Example 20, 2-(2-((3-(Isopropylamino)propyl)amino)-4-methoxyphenyl)-5,7-dimethoxyquinazolin-4(3H)-one] |  | Active | Active | Active | Active | 208 to 210 °C | Active

Continued, in another order:

IL-17 activity (IC50 < 30 μM) [1] | c-myc activity (IC50 < 30 μM) [2] | IL-6 activity (IC50 < 30 μM) [3] | Cell Proliferation activity (IC50 < 30 μM) [4] | FRET activity BRD4(1) [5] | melting point | SMILES | ApoA-1 activity (EC170 < 30 μM) [6]
 |  | Active |  | Active | 230 to 231 °C | COc1ccc(-c2nc3cc(OC)cc(OC)c3c(=O)[nH]2)c(NCCN2CCN(C)CC2)c1 [Example 25, 5,7-Dimethoxy-2-(4-methoxy-2-((2-(4-methylpiperazin-1-yl)ethyl)amino)phenyl)-quinazolin-4(3H)-one] | Active
 | Active | Active | Active | Active | 192 to 193 °C | COc1cnc(-c2nc3cc(OC)cc(OC)c3c(=O)[nH]2)c(NC2CCN(C(=O)C(C)C)CC2)c1 [Example 32, 2-(3-((1-Isobutyrylpiperidin-4-yl)amino)-5-methoxypyridin-2-yl)-5,7-dimethoxyquinazolin-4(3H)-one] | Active
 | Active | Active | Active | Active |  | COc1cc(OC)c2c(=O)[nH]c(-c3ncccc3NC3CCN(C(=O)C(C)C)CC3)nc2c1 [Example 36, 2-(-((1-Isobutyrylpiperidin-4-yl)amino)pyridin-2-yl)-5,7-dimethoxyquinazolin-4(3H)-one] | Active

— patent publication US10500209B2, “Quinazolinones as bromodomain inhibitors” (Zenith Epigenetics Ltd., priority 2013, dated 2019)
